Measurements published in ChEMBL document CHEMBL5620394, “Synthesis of new antiproliferative 1,3,4-substituted-pyrrolo[3,2-c]quinoline derivatives, biological and in silico insights” (Eur J Med Chem, 2023).
Active and inactive are the calls of the source. The rule behind the calls is not given here.

Tests used:
ACHN = assay: Antiproliferative activity against human ACHN cells assessed as cell growth at 10 uM incubated for 48 hrs by sulforhodamine B assay relative to control; type: functional; settings: read-out: Activity
KM12 = assay: Antiproliferative activity against human KM12 cells assessed as cell growth at 10 uM incubated for 48 hrs by sulforhodamine B assay relative to control; type: functional; settings: read-out: Activity
NCI-H226 = assay: Antiproliferative activity against human NCI-H226 cells assessed as cell growth at 10 uM incubated for 48 hrs by sulforhodamine B assay relative to control; type: functional; settings: read-out: Activity
SNB-75 = assay: Antiproliferative activity against human SNB-75 cells assessed as cell growth at 10 uM incubated for 48 hrs by sulforhodamine B assay relative to control; type: functional; settings: read-out: Activity
HCT-116 = assay: Antiproliferative activity against human HCT-116 cells assessed as cell growth at 10 uM incubated for 48 hrs by sulforhodamine B assay relative to control; type: functional; settings: read-out: Activity
HOP-62 = assay: Antiproliferative activity against human HOP-62 cells assessed as cell growth at 10 uM incubated for 48 hrs by sulforhodamine B assay relative to control; type: functional; settings: read-out: Activity
SF-295 = assay: Antiproliferative activity against human SF-295 cells assessed as cell growth at 10 uM incubated for 48 hrs by sulforhodamine B assay relative to control; type: functional; settings: read-out: Activity
MDA-MB-231 = assay: Antiproliferative activity against human MDA-MB-231 cells assessed as cell growth at 10 uM incubated for 48 hrs by sulforhodamine B assay relative to control; type: functional; settings: read-out: Activity
HCT-15 = assay: Antiproliferative activity against human HCT-15 cells assessed as cell growth at 10 uM incubated for 48 hrs by sulforhodamine B assay relative to control; type: functional; settings: read-out: Activity
EKVX = assay: Antiproliferative activity against human EKVX cells assessed as cell growth at 10 uM incubated for 48 hrs by sulforhodamine B assay relative to control; type: functional; settings: read-out: Activity
CCRF-CEM = assay: Antiproliferative activity against human CCRF-CEM cells assessed as cell growth at 10 uM incubated for 48 hrs by sulforhodamine B assay relative to control; type: functional; settings: read-out: Activity
PC-3 = assay: Antiproliferative activity against human PC-3 cells assessed as cell growth at 10 uM incubated for 48 hrs by sulforhodamine B assay relative to control; type: functional; settings: read-out: Activity
NCI-H522 = assay: Antiproliferative activity against human NCI-H522 cells assessed as cell growth at 10 uM incubated for 48 hrs by sulforhodamine B assay relative to control; type: functional; settings: read-out: Activity
LOX IMVI = assay: Antiproliferative activity against human LOX IMVI cells assessed as cell growth at 10 uM incubated for 48 hrs by sulforhodamine B assay relative to control; type: functional; settings: read-out: Activity
RPMI-8226 = assay: Antiproliferative activity against human RPMI-8226 cells assessed as cell growth at 10 uM incubated for 48 hrs by sulforhodamine B assay relative to control; type: functional; settings: read-out: Activity
CAKI-1 = assay: Antiproliferative activity against human CAKI-1 cells assessed as cell growth at 10 uM incubated for 48 hrs by sulforhodamine B assay relative to control; type: functional; settings: read-out: Activity
SK-OV-3 = assay: Antiproliferative activity against human SK-OV-3 cells assessed as cell growth at 10 uM incubated for 48 hrs by sulforhodamine B assay relative to control; type: functional; settings: read-out: Activity
A549 = assay: Antiproliferative activity against human A549 cells assessed as cell growth at 10 uM incubated for 48 hrs by sulforhodamine B assay relative to control; type: functional; settings: read-out: Activity
MCF7 [1] = assay: Antiproliferative activity against human MCF7 cells assessed as cell growth at 10 uM incubated for 48 hrs by sulforhodamine B assay relative to control; type: functional; settings: read-out: Activity
MOLT-4 = assay: Antiproliferative activity against human MOLT-4 cells assessed as cell growth at 10 uM incubated for 48 hrs by sulforhodamine B assay relative to control; type: functional; settings: read-out: Activity
T47D = assay: Antiproliferative activity against human T47D cells assessed as cell growth at 10 uM incubated for 48 hrs by sulforhodamine B assay relative to control; type: functional; settings: read-out: Activity
IGROV-1 = assay: Antiproliferative activity against human IGROV-1 cells assessed as cell growth at 10 uM incubated for 48 hrs by sulforhodamine B assay relative to control; type: functional; settings: read-out: Activity
SR = assay: Antiproliferative activity against human SR cells assessed as cell growth at 10 uM incubated for 48 hrs by sulforhodamine B assay relative to control; type: functional; settings: read-out: Activity
K562 = assay: Antiproliferative activity against human K562 cells assessed as cell growth at 10 uM incubated for 48 hrs by sulforhodamine B assay relative to control; type: functional; settings: read-out: Activity
UO-31 = assay: Antiproliferative activity against human UO-31 cells assessed as cell growth at 10 uM incubated for 48 hrs by sulforhodamine B assay relative to control; type: functional; settings: read-out: Activity
MDA-MB-468 = assay: Antiproliferative activity against human MDA-MB-468 cells assessed as cell growth at 10 uM incubated for 48 hrs by sulforhodamine B assay relative to control; type: functional; settings: read-out: Activity
UACC-257 = assay: Antiproliferative activity against human UACC-257 cells assessed as cell growth at 10 uM incubated for 48 hrs by sulforhodamine B assay relative to control; type: functional; settings: read-out: Activity
MDA-MB-435 = assay: Antiproliferative activity against human MDA-MB-435 cells assessed as cell growth at 10 uM incubated for 48 hrs by sulforhodamine B assay relative to control; type: functional; settings: read-out: Activity
UACC-62 = assay: Antiproliferative activity against human UACC-62 cells assessed as cell growth at 10 uM incubated for 48 hrs by sulforhodamine B assay relative to control; type: functional; settings: read-out: Activity
MCF7 [2] = assay: Antiproliferative activity against human MCF7 cells assessed as inhibition of cell growth incubated for 4 hrs by MTS assay; type: functional
HT-29 = assay: Antiproliferative activity against human HT-29 cells assessed as cell growth at 10 uM incubated for 48 hrs by sulforhodamine B assay relative to control; type: functional; settings: read-out: Activity
HL-60 = assay: Antiproliferative activity against human HL-60 cells assessed as cell growth at 10 uM incubated for 48 hrs by sulforhodamine B assay relative to control; type: functional; settings: read-out: Activity
786-0 = assay: Antiproliferative activity against human 786-0 cells assessed as cell growth at 10 uM incubated for 48 hrs by sulforhodamine B assay relative to control; type: functional; settings: read-out: Activity
[3] = Antiproliferative activity against human 16HBE14o- cells assessed as inhibition of cell growth incubated for 4 hrs by MTS assay; type: toxicity, cell-based; settings: read-out: IG50
MCF7 [4] = assay: Antiproliferative activity against human MCF7 cells assessed as reduction in cell growth at 10 to 100 uM incubated for 4 hrs by MTS assay; type: functional, cell-based; settings: dose 10-100 µM
HeLa = assay: Antiproliferative activity against human HeLa cells assessed as inhibition of cell growth incubated for 4 hrs by MTS assay; type: functional
LA-N-5 = assay: Antiproliferative activity against human LA-N-5 cells assessed as reduction in cell growth at 10 to 100 uM incubated for 4 hrs by MTS assay; type: functional, cell-based; settings: dose 10-100 µM

SMILES | growth at 10 µM (ACHN) [%] | growth at 10 µM (NCI-H226) [%] | growth at 10 µM (SNB-75) [%] | growth at 10 µM (MDA-MB-231) [%] | growth at 10 µM (CCRF-CEM) [%] | growth at 10 µM (PC-3) [%] | growth at 10 µM (NCI-H522) [%] | growth at 10 µM (RPMI-8226) [%] | growth at 10 µM (CAKI-1) [%] | growth at 10 µM (MCF7 [1]) [%] | growth at 10 µM (MOLT-4) [%] | growth at 10 µM (T47D) [%] | growth at 10 µM (SR) [%] | growth at 10 µM (K562) [%] | growth at 10 µM (UO-31) [%] | growth at 10 µM (UACC-257) [%] | growth at 10 µM (UACC-62) [%] | growth at 10 µM (HT-29) [%] | growth at 10 µM (HL-60) [%] | growth at 10 µM (786-0) [%] | other results
CC(=O)c1c(C)n(CCCCl)c2c1c(-c1ccc3c(c1)OCO3)nc1ccccc12 | 84.4 | 115 | 69.4 | 95.8 | 77.1 | 76.2 | 63.7 | 83.3 | 86.7 | 83.2 | 67.3 | 71.5 | 53.1 | 71 | 85.4 | 102 |  |  |  |  | growth at 10 µM (KM12): 87.3%; growth at 10 µM (HCT-116): 93.6%; growth at 10 µM (HOP-62): 96.7%; growth at 10 µM (SF-295): 76.7%; growth at 10 µM (HCT-15): 87%; growth at 10 µM (EKVX): 86%; growth at 10 µM (LOX IMVI): 90%; growth at 10 µM (SK-OV-3): 97.2%; growth at 10 µM (A549): 81.7%; growth at 10 µM (IGROV-1): 93.9%; growth at 10 µM (MDA-MB-468): 101%; growth at 10 µM (MDA-MB-435): 93.6%
CC(=O)c1c(C)[nH]c2c1c(-c1cc(Cl)cc(Cl)c1O)nc1ccccc12 | 71.2 | 87.4 | 72.8 | 72 | 58.2 | 71.4 | 70 | 66.7 | 77.6 | 74 | 51.6 | 61.9 | 52.2 | 74.8 | 56.8 | 118 |  |  |  |  | growth at 10 µM (KM12): 75.1%; growth at 10 µM (HCT-116): 75.2%; growth at 10 µM (HOP-62): 79.9%; growth at 10 µM (SF-295): 74.1%; growth at 10 µM (HCT-15): 73.1%; growth at 10 µM (EKVX): 72.8%; growth at 10 µM (LOX IMVI): 73.6%; growth at 10 µM (SK-OV-3): 75.2%; growth at 10 µM (A549): 83.5%; growth at 10 µM (IGROV-1): 75.6%; growth at 10 µM (MDA-MB-468): 89.7%; growth at 10 µM (MDA-MB-435): 85.6%
CC(=O)c1c(C)[nH]c2c1c(-c1ccccc1)nc1ccccc12 |  | 76.7 | 42.3 | 84.4 | 87.2 | 78.6 | 72.3 | 87.9 | 54 | 73.7 | 106 | 82.5 | 71.9 | 92.6 | 36.6 | 75.1 | 62.4 | 92.8 | 82.7 | 76.7 | IG50 (MCF7 [2]): 10 µM; GI50 at 4 h [3]: 10 µM; Activity (MCF7 [4]): Active; IG50 (HeLa): 10 µM
CC(=O)c1c(C)[nH]c2c1c(-c1cc3c(cc1Br)OCO3)nc1ccccc12 | 93 | 99.7 | 84 | 88.2 | 92 | 85.5 | 77 | 96.9 | 95.6 | 70.2 | 83.8 | 91.4 | 74 | 85.2 | 61.5 | 105 |  |  |  |  | growth at 10 µM (KM12): 91%; growth at 10 µM (HCT-116): 98.9%; growth at 10 µM (HOP-62): 91.5%; growth at 10 µM (SF-295): 94.2%; growth at 10 µM (HCT-15): 97.2%; growth at 10 µM (EKVX): 89.6%; growth at 10 µM (LOX IMVI): 89.3%; growth at 10 µM (SK-OV-3): 96.7%; growth at 10 µM (A549): 88.7%; growth at 10 µM (IGROV-1): 82.5%; growth at 10 µM (MDA-MB-468): 109%; growth at 10 µM (MDA-MB-435): 95.6%
CCOC(=O)c1c(C)n(-c2ccccc2)c2c1c(-c1ccccc1)nc1ccccc12 |  | 87 | 80.4 | 73.4 | 88.8 | 74.5 | 81.2 | 88.1 | 91 | 85.1 | 84.3 | 95.9 | 89.9 | 86.4 | 80.8 | 94.7 | 74.7 | 100 | 89.1 | 86 | 
CC(=O)c1c(C)n(C)c2c1c(-c1ccccc1)nc1ccccc12 |  | 88.4 | 85.8 | 94.3 | 92.7 | 69.8 | 95.6 | 79.4 | 87.2 | 95.6 | 89.4 | 98.9 | 94.7 | 102 | 68.8 | 96.4 | 87.8 | 112 | 76.8 | 101 | Activity (MCF7 [4]): Active
CC(=O)c1c(C)n(-c2ccccc2)c2c1c(-c1ccc(C)o1)nc1ccccc12 |  | 41 | 93.8 | 73.3 | 74.2 | 69.6 | 71.1 | 70.5 | 85.3 | 88.4 | 76.7 | 99.7 | 80.3 | 71.6 | 79.1 | 90.8 | 85.1 | 68.4 | 63.4 | 93.6 | Activity (LA-N-5): Active
CC(=O)c1c(C)n(-c2ccccc2)c2c1c(-c1ccccc1)nc1ccccc12 |  | 84.2 | 75.1 | 76.3 | 95.9 | 85.7 | 77 | 87.5 | 72.3 | 89.6 | 77.6 | 102 | 79.5 | 76.8 | 59.6 | 98.1 | 70.4 |  | 90.7 | 88.5 | Activity (LA-N-5): Active; Activity (MCF7 [4]): Active
